The text below walks through data of patent publication US10676474B2, “1,6-naphthyridine derivatives as CDK4/6 inhibitor” (CSTONE PHARMACEUTICALS, priority 2016, dated 2020).

Molecules are shown by their SMILES. Bounds are passed on as bounds.

Series [1] relates to colorectal cancer HCT-116 model. The series can be described thus: In vivo pharmacodynamic study (3), HCT-116 model, tumor volume. The arrangement: species or system BALB/c nude mice. The following applies: 60 mg/kg(D0-D11), 120 mg/kg (D12-D20), PO, QD × 21. As for the experimental part: (§1) The in vivo pharmacodynamic experiments were performed on the BALB/c nude mice implanted subcutaneously with the colorectal cancer HCT-116 model.
(§2) BALB/c nude mice, female, 6-8 weeks, weighing approximately 18-22 g, were placed in a single ventilated cage (3-5 mice per cage) under a special pathogen free environment. All of the cages, beddings and water were disinfected before use. All of the animals were permitted free access to a standard certified commercial laboratory diet. A total of 48 mice purchased from Shanghai Lingchang Biotechnology Co., Ltd. were used for the study. Each mouse was implanted subcutaneously with 0.2 mL of 5×10^6 HCT-116 cells in the right back for tumor growth. The dosing in groups initiated when the average tumor volume reached about 132 mm^3. The tumor volume was measured twice a week using a two-dimensional caliper, and the volume was measured in mm^3, calculated by the following the formula: V=0.5 a×b^2, wherein, a and b were the long and short diameters of the tumor, respectively. The antitumor efficacy was determined by dividing the average increase in the tumor volume of the animals treated with the compound by the average increase in the tumor volume of the untreated animals.

Series [2] in a line: Metabolic stability in mouse liver microsomes. The class given is in vitro ADME. Particulars: 0.5 mg/mL protein, read-out: Mice T1/2. As for the experimental part: (§3) This assay is used to test the metabolic stability of tested substances in rats, mice and human liver microsomes.
(§4) 1) The tested compound with concentration of 1 μM was co-incubated with liver microsomes with a protein concentration of 0.5 mg/mL under a reducing coenzyme II regeneration system in a 37° C. water bath.
(§5) 2) The positive controls include: testosterone (3A4 substrate), propafenene (2D6 substrate) and diclofenac (2C9 substrate). The incubation condition of the positive controls was consistent with that of the compound.
(§6) 3) The reaction time points were: 0, 5, 10, 20, 30 and 60 minutes, and the reaction is terminated at the corresponding time point using a termination solution containing an internal standard. The compounds were also incubated with microsomes for 60 minutes without a reducing coenzyme II regeneration system and served as a negative control.
(§7) 4) Each time point was a single point (n=1).
(§8) 5) The sample was determined by LC/MS/MS, and the compound concentration was shown as the ratio of the peak area of the compound to the peak area of the internal standard (non-standard).
(§9) 6) In the project report summary, the half-life and the clearance rate would be calculated.

For series [3], the system named is non-small cell lung cancer NCI-H358 model. The series can be described thus: In vivo pharmacodynamic study (2), NCI-H358 model, tumor volume. Further details: species or system BALB/c nude mice. Particulars: for Gross tumor volume (Day 1): Day 1, Table 6-2; for Gross tumor volume (Day 28): Day 28, Table 6-2. As for the experimental part:
The in vivo pharmacodynamic experiments were performed on the BALB/c nude mice implanted subcutaneously with the non-small cell lung cancer NCI-H358 model.
All of the cages, beddings and water were disinfected before use. All of the animals were permitted free access to a standard certified commercial laboratory diet. A total of 86 mice purchased from Vital River Laboratory Animal Co., LTD, Beijing were used for the study. The animal information of the experiments in Example 34 was as follows: BALB/c nude mice, female, 6-8 weeks, weighing approximately 16-18 g, were placed in a single ventilated cage (4 mice per cage) under a special pathogen free environment. All of the cages, beddings and water were disinfected before use. All of the animals were permitted free access to a standard certified commercial laboratory diet. A total of 56 mice purchased from Shanghai Lingchang Biotechnology Co., Ltd. were used for the study.
Each mouse was implanted subcutaneously with NCI-H358 tumor cells in the right back for tumor growth. The dosing initiated when the average tumor volume reached about 100-200 mm^3. […] The tumor volume was measured twice a week using a two-dimensional caliper, and the volume was measured in mm^3, calculated by the following the formula: V=0.5 a×b^2, wherein, a and b were the long and short diameters of the tumor, respectively. The antitumor efficacy was determined by dividing the average increase in the tumor volume of the animals treated with the compound by the average increase in the tumor volume of the untreated animals, and the safety of the compound was determined by the change in the body weight of the animal treated with the compound.
TGI: Tumor Growth Inhibition.

Series [4] addresses T1, CDK6/cyclin D1 (Homo sapiens, UniProt Q00534).
T1 construct: purchased Life technology
The series can be described thus: Enzyme activity assay CDK6/cyclin D1 (Lance Ultra). The class given is biochemical. The following applies: 0.8 nM CDK6/cyclin D1, 250 μM ATP, 180 minutes. As for the experimental part:
CDK4/cyclin D1, CDK6/cyclin D1 (Life technology). ULight labeled polypeptide substrates ULight-4E-BP1 and ULight-MBP (PerkinElmer). Europium labeled anti-myelin basic protein antibody and europium labeled rabbit-derived antibody (PerkinElmer). Envision Multi-label Analyzer (PerkinElmer) for signal detection.
They were respectively dissolved in an enzyme buffer solution comprising: 50 mM hydroxyethylpiperazine ethanesulfuric acid solution at pH 7.5, 1 mM ethylenediaminetetraacetic acid, 10 mM magnesium chloride, 0.01% Brij-35, 2 mM dithiothreitol. After the reaction was started, the OptiPlate 384-well plate was sealed with a top heat seal film TopSeal-A and incubated at room temperature for 180 minutes.
The termination buffer solution of the enzymatic reaction was prepared, and EDTA was dissolved in a 1-fold diluted assay buffer solution. The reaction was terminated and incubated at room temperature for 5 minutes. 5 μL of the assay mixed solution (prepared with europium labeled anti-myelin basic protein antibody and europium labeled rabbit-derived antibody, respectively) was added to the reactions of CDK4/cyclin D1 and CDK6/cyclin D1, respectively, and incubated at room temperature for 60 minutes. The reaction signal was detected by Envision according to the time-resolved fluorescence resonance energy transfer theory.

Series [5] is described as follows: Metabolic stability in rat liver microsomes. The class given is in vitro ADME. Particulars: 0.5 mg/mL protein, read-out: Rats T1/2. As for the experimental part: as §3, §4, §5, §6, §7, §8, §9
Series [6] can be described thus: In vivo pharmacodynamic study (3), HCT-116 model, animal weight. Further details: species or system BALB/c nude mice. The following applies: 60 mg/kg(D0-D11), 120 mg/kg (D12-D20), PO. As for the experimental part: as §1, §2

T1 sequence (Q00534 whole entry): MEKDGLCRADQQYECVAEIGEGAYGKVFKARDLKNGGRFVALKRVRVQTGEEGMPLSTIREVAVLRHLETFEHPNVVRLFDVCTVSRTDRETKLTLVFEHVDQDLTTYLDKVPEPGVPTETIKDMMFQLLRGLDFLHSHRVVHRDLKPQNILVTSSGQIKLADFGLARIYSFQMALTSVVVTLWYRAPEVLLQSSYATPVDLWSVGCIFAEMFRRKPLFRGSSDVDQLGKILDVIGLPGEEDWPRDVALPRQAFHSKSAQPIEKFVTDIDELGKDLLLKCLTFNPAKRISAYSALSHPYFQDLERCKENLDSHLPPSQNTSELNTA
T1 sequence (P24385 whole entry partner): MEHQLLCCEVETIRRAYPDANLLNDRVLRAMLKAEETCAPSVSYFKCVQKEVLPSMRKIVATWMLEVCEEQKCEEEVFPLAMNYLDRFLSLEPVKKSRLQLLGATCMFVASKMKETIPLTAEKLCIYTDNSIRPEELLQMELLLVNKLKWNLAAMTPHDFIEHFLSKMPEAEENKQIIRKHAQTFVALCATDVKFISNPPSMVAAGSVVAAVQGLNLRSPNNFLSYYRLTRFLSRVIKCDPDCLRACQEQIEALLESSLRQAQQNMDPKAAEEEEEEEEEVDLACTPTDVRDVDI

Consider `CC(=O)c1c(C)c2cnc(Nc3cnc(N4CCN(CCN(C)C)CC4)cn3)cc2n(C2CCCC2)c1=O` [Example 34], for which the “Gross tumor volume, 0 day” value in series [1] (0 day) was 132 mm^3. Further, in series [1] (7 days), the “Gross tumor volume, 7 days” value turned out to be 416 mm^3. Moreover, in series [1] (14 days), the “Gross tumor volume, 14 days” value is listed as 695 mm^3. The “Gross tumor volume, 21 days” value in series [1] (21 days) turned out to be 963 mm^3. Further, the half-life at 1 μM was 40.2 min in series [2] and above 145 min in series [5]. For the same compound, the “Gross tumor volume (Day 1)” value in series [3] (20 mg/kg orally daily) is listed as 149 ± 18 mm^3; in series [3] (60 mg/kg orally daily), 169 ± 27 mm^3; in series [3] (150 mg/kg orally daily), 149 ± 18 mm^3. Further, the “TGI (Day 28)” value was determined as 15.3% in series [3] (20 mg/kg orally daily), 32.1% in series [3] (60 mg/kg orally daily) and 92.9% in series [3] (150 mg/kg orally daily). Moreover, the “Gross tumor volume (Day 28)” value was 940 ± 70 mm^3 in series [3] (20 mg/kg orally daily), 804 ± 103 mm^3 in series [3] (60 mg/kg orally daily) and 215 ± 34 mm^3 in series [3] (150 mg/kg orally daily). The compound also showed a concentration for half-maximal inhibition (IC50) in series [4] of 3.65 nM. Moreover, the “Changes in animal weight, 0 day” value in series [6] (QD × 21, 0 day) is listed as 0%. In addition, in series [6] (QD × 21, 7 days), the “Changes in animal weight, 7 days” value is 2.5%. Also, in series [6] (QD × 21, 14 days), the “Changes in animal weight, 14 days” value was −2.3%. Besides, the “Changes in animal weight, 21 days” value in series [6] (QD × 21, 21 days) was −5.9%.

What is called IC50 is the midpoint of a concentration-inhibition curve. The low end stands for greater potency, the high end for weaker potency.
